The source of these data is ChEMBL document CHEMBL4610094, “Prenylated Phenolic Compounds from the Aerial Parts of Glycyrrhiza uralensis as PTP1B and α-Glucosidase Inhibitors” (J Nat Prod, 2020).

A word on the inhibition: it is the change of the read-out against control, counted positive when it falls. As a reminder, the IC50 is the concentration needed to halve the response being measured.

Active and inactive are the calls of the source. No cut-off for these calls is given here. Bounds are passed on as bounds.

For data set [1], the system named is HepG2. The data set can be described thus: Induction of glucose uptake in human insulin resistant HepG2 cells at 10 uM incubated for 24 hrs by GOD-POD method relative to control. It is filed as functional.
The target in data set [2] is T1, Tyrosine-protein phosphatase non-receptor type 1 (Homo sapiens) (UniProt P18031).
T1 sequence (whole entry): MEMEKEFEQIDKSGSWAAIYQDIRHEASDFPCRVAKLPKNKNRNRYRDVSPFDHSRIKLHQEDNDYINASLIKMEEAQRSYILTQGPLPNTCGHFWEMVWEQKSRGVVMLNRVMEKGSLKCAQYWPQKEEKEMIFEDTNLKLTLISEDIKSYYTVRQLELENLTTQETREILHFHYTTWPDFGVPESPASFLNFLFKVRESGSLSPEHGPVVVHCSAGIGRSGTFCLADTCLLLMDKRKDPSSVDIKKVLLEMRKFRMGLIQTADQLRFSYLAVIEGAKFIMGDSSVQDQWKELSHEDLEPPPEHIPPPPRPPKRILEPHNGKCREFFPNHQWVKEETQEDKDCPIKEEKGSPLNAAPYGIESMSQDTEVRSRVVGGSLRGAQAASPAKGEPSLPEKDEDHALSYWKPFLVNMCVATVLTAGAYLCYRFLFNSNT
The data set can be described thus: Inhibition of recombinant human PTP1B (1 to 321 residues) expressed in Escherichia coli at 10 uM using p-nitrophenyl phosphate as substrate incubated for 30 mins relative to control.

The nature of data set [3]: Cytotoxicity against human insulin resistant HepG2 cells assessed as cell viability at 10 uM by CCK8 assay relative to control. It is filed as cell-based. The following applies: read-out: Activity. (Formazan colour is commonly taken as a measure of viable cells.)
For data set [4], the species on record is Homo sapiens. The data set can be described thus: Inhibition of alpha-Glucosidase (unknown origin) at 10 uM using pNPG as substrate incubated for 30 mins relative to control.
Data set [5] concerns the target T2, Tyrosine-protein phosphatase non-receptor type 1 (Homo sapiens, UniProt P18031).
T2 sequence (P18031 whole entry): T1 sequence (whole entry)
The data set is described as follows: Inhibition of recombinant human PTP1B (1 to 321 residues) expressed in Escherichia coli using p-nitrophenyl phosphate as substrate incubated for 30 mins.

The nature of data set [6]: Inhibition of alpha-Glucosidase (unknown origin) using pNPG as substrate incubated for 30 mins. Set-up: species or system Homo sapiens.
The subject of data set [7] is HepG2. The data set can be described thus: Induction of glucose uptake in human insulin resistant HepG2 cells at 500 uM incubated for 24 hrs by GOD-POD method relative to control. The format is functional, cell-based.

Take `O=c1c(-c2ccc(O)cc2)coc2cc(O)ccc12` [DAIDZEIN]: in data set [1], the Activity is over 80%. Also, the figures for the inhibition in data set [2] and in data set [4] were over 60% and over 40%, respectively. Further, in data set [3], the viability at 10 µM is 80 to 110%.

Turning to `O=c1c(O)c(-c2ccc(O)cc2)oc2cc(O)cc(O)c12` [KAEMPFEROL], the Activity in data set [1] is over 80%. Besides, the inhibition was over 60% in data set [2] and over 40% in data set [4]. Also, the viability at 10 µM in data set [3] was 80 to 110%.

In the case of `CC(C)=CCc1c(O)c(CC=C(C)C)c2occ(-c3ccc(O)cc3)c(=O)c2c1O`, the results for the IC50 in data set [5] and in data set [6] were 2.3 µM and 16.3 µM, respectively.

`COc1cc2c(c(O)c1CC=C(C)C)C(=O)[C@H](c1ccc(O)cc1)CO2` registered an Activity in data set [1] of 95%. Moreover, the values for the inhibition in data set [2] and in data set [4] were over 60% and over 40%, respectively. For the same molecule, the viability at 10 µM in data set [3] is 80 to 110%.

Consider `CN(C)C(=N)NC(=N)N`, for which the result in data set [7] was Active.

Regarding `CC(C)=CCc1c(O)cc2c(c1O)C(=O)[C@@](O)(c1ccc(O)c3c1OC(C)(C)C=C3)CO2`, the inhibition was over 60% in data set [2] and over 40% in data set [4]. For the same molecule, the viability at 10 µM in data set [3] lay within 80 to 110%. In addition, the IC50 in data set [5] came out at 5.9 µM; in data set [6] it was 20.1 µM.

As to `COc1cc2c(c(O)c1CC=C(C)C)C(=O)C(c1ccc(O)cc1O)CO2` (configuration not stated), the Activity in data set [1] is listed as over 80%. Also, the figures for the inhibition in data set [2] and in data set [4] were over 60% and over 40%, respectively. The viability at 10 µM in data set [3] was 80 to 110%.

`O=C(/C=C/c1ccc(O)cc1)c1ccc(O)cc1O` [ISOLIQUIRITIGENIN]: the inhibition in data set [2] is over 60%; in data set [4], over 40%. In addition, the viability at 10 µM in data set [3] lay within 80 to 110%. The molecule also showed a 50% inhibitory concentration (IC50) in data set [6] of 5.6 µM.

Consider `COc1ccc(-c2coc3cc(O)cc(O)c3c2=O)cc1` [BIOCHANIN], for which the inhibition in data set [2] is over 60%; in data set [4] it was over 40%. The viability at 10 µM in data set [3] lay within 80 to 110%. The IC50 in data set [6] is 3.8 µM.

Take `COc1c(CC=C(C)C)c(O)cc2oc(-c3ccc(O)cc3O)cc12` [LICOCOUMARONE]: the Activity in data set [1] was over 80%. Also, the inhibition in data set [2] was over 60%; in data set [4], 61.2%. Moreover, the viability at 10 µM in data set [3] lay within 80 to 110%.

The molecule `COc1c(CC=C(C)C)c(O)cc2c1-c1oc3cc(O)ccc3c1CO2` returned an Activity in data set [1] of over 80%. The inhibition in data set [2] was over 60%; in data set [4], over 40%. Moreover, the viability at 10 µM in data set [3] fell in the range of 80 to 110%. Besides, the IC50 in data set [5] was determined as 8.3 µM; in data set [6] it was 0.3 µM.

As for `CC(C)=CCc1c(O)ccc(-c2cc3ccc(O)cc3o2)c1O` [2'-O-DEMETHYLBIDWILLOL B], the inhibition in data set [2] was over 60%; in data set [4], 61.7%. In data set [3], the viability at 10 µM is 80 to 110%. Moreover, the IC50 in data set [5] is 9.2 µM; in data set [6], 8.6 µM.
